According to ChEMBL document CHEMBL5038598, “Design and Synthesis of Pyrrolo[2,3-d]pyrimidine-Derived Leucine-Rich Repeat Kinase 2 (LRRK2) Inhibitors Using a Checkpoint Kinase 1 (CHK1)-Derived Crystallographic Surrogate” (J Med Chem, 2021):

Assays:
[1] = target: T1, Leucine-rich repeat serine/threonine-protein kinase 2 (Homo sapiens, UniProt Q5S007); experiment: Inhibition of recombinant human LRRK2 WT using fluorescein-labeled LRRKtide as substrate in presence of ATP preincubated for 50 mins followed by anti-phospho-LRRKtide antibody addition and measured after 30 mins by TR-FRET based Lanthascreen kinase activity assay
[2] = target: T1, Leucine-rich repeat serine/threonine-protein kinase 2; experiment: Inhibition of LRRK2-pSer935 in LRRK2 WT expressing human HEK293 cells and measured after 48 hrs by ICW assay; type: cell-based
[3] = target: T2, Leucine-rich repeat serine/threonine-protein kinase 2 (Homo sapiens, UniProt Q5S007, G2019S); experiment: Inhibition of LRRK2-pSer935 in LRRK2 G2019S mutant expressing human HEK293 cells and measured after 48 hrs by ICW assay; type: cell-based
[4] = target: T2, Leucine-rich repeat serine/threonine-protein kinase 2; experiment: Inhibition of recombinant human GST tagged truncated LRRK2 G2019S mutant using fluorescein-labeled LRRKtide as substrate in presence of ATP preincubated for 50 mins followed by anti-phospho-LRRKtide antibody addition and measured after 30 mins by TR-FRET based Lanthascreen kinase activity assay
[5] = target: T3, NUAK family SNF1-like kinase 1 (Homo sapiens) (UniProt O60285); experiment: Inhibition of ARK5 (unknown origin) assessed as remaining activity using botin-anti-his and Lanthascreen Eu-streptavidin at 1 uM incubated for 2 hrs by TR-FRET based Lanthascreen kinase activity assay relative to control
T3 sequence (whole entry): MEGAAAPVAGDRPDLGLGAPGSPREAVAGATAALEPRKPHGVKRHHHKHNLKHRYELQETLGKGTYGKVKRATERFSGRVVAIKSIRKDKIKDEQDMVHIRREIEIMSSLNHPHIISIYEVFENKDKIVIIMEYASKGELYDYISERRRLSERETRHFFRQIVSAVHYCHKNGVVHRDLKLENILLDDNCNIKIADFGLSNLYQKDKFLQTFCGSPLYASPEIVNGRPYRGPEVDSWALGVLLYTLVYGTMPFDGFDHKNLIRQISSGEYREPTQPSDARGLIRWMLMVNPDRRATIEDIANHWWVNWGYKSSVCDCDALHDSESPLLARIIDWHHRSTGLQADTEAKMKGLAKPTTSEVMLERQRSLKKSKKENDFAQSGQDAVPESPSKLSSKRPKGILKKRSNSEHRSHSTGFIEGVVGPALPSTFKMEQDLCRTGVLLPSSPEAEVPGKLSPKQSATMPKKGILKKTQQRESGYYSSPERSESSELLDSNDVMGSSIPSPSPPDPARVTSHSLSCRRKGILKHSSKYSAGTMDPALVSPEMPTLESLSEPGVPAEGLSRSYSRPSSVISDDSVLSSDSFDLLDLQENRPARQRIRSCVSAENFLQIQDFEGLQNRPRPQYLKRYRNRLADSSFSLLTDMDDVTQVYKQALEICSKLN

[6] = target: Proto-oncogene tyrosine-protein kinase receptor Ret (Homo sapiens) (UniProt P07949); experiment: Inhibition of RET (unknown origin) assessed as remaining activity using botin-anti-his and Lanthascreen Eu-streptavidin measured at 1 uM incubated for 2 hrs by TR-FRET based Lanthascreen kinase activity assay relative to control
[7] = target: T2, Leucine-rich repeat serine/threonine-protein kinase 2; experiment: Binding affinity to human GST tagged truncated LRRK2 G2019S mutant incubated for 2 hrs by TR-FRET based Lanthascreen kinase activity assay
[8] = target: T1, Leucine-rich repeat serine/threonine-protein kinase 2; experiment: Binding affinity to human LRRK2 WT incubated for 2 hrs by TR-FRET based Lanthascreen kinase activity assay
[9] = Aqueous solubility of the compound; type: physicochemical; conditions: buffer

Chain of Proto-oncogene tyrosine-protein kinase receptor Ret (Homo sapiens) (P07949 whole entry, the tested form may be a part): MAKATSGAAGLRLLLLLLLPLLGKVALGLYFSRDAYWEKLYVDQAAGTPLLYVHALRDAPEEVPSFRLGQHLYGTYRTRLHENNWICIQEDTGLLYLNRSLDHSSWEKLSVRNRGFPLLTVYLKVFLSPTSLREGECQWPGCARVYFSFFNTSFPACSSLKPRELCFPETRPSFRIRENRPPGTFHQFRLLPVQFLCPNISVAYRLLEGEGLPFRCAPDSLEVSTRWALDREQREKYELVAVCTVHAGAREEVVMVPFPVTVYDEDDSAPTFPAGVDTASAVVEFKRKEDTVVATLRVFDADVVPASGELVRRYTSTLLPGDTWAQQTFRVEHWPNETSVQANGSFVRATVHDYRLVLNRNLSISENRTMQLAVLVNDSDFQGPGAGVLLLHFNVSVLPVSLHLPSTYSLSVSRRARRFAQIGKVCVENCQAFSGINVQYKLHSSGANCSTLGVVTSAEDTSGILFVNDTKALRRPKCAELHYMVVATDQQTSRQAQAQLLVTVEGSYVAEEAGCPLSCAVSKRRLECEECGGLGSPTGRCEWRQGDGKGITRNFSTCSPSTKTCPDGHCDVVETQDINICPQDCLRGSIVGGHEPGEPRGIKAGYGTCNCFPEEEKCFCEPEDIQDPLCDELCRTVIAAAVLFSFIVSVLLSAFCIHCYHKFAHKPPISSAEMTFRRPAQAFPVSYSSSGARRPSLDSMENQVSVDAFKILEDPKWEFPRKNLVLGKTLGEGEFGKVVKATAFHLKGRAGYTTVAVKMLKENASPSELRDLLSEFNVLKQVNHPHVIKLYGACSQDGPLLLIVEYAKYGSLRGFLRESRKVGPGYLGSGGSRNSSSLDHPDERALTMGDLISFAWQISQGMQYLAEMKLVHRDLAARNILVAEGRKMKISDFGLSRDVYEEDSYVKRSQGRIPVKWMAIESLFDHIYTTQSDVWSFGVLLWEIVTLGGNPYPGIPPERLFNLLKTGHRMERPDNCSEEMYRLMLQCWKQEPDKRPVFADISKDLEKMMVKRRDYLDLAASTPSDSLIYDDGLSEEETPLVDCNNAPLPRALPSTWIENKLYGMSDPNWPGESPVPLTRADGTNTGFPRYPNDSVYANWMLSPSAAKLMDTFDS
T2 sequence (Q5S007 whole entry G2019S, the tested form may be a part): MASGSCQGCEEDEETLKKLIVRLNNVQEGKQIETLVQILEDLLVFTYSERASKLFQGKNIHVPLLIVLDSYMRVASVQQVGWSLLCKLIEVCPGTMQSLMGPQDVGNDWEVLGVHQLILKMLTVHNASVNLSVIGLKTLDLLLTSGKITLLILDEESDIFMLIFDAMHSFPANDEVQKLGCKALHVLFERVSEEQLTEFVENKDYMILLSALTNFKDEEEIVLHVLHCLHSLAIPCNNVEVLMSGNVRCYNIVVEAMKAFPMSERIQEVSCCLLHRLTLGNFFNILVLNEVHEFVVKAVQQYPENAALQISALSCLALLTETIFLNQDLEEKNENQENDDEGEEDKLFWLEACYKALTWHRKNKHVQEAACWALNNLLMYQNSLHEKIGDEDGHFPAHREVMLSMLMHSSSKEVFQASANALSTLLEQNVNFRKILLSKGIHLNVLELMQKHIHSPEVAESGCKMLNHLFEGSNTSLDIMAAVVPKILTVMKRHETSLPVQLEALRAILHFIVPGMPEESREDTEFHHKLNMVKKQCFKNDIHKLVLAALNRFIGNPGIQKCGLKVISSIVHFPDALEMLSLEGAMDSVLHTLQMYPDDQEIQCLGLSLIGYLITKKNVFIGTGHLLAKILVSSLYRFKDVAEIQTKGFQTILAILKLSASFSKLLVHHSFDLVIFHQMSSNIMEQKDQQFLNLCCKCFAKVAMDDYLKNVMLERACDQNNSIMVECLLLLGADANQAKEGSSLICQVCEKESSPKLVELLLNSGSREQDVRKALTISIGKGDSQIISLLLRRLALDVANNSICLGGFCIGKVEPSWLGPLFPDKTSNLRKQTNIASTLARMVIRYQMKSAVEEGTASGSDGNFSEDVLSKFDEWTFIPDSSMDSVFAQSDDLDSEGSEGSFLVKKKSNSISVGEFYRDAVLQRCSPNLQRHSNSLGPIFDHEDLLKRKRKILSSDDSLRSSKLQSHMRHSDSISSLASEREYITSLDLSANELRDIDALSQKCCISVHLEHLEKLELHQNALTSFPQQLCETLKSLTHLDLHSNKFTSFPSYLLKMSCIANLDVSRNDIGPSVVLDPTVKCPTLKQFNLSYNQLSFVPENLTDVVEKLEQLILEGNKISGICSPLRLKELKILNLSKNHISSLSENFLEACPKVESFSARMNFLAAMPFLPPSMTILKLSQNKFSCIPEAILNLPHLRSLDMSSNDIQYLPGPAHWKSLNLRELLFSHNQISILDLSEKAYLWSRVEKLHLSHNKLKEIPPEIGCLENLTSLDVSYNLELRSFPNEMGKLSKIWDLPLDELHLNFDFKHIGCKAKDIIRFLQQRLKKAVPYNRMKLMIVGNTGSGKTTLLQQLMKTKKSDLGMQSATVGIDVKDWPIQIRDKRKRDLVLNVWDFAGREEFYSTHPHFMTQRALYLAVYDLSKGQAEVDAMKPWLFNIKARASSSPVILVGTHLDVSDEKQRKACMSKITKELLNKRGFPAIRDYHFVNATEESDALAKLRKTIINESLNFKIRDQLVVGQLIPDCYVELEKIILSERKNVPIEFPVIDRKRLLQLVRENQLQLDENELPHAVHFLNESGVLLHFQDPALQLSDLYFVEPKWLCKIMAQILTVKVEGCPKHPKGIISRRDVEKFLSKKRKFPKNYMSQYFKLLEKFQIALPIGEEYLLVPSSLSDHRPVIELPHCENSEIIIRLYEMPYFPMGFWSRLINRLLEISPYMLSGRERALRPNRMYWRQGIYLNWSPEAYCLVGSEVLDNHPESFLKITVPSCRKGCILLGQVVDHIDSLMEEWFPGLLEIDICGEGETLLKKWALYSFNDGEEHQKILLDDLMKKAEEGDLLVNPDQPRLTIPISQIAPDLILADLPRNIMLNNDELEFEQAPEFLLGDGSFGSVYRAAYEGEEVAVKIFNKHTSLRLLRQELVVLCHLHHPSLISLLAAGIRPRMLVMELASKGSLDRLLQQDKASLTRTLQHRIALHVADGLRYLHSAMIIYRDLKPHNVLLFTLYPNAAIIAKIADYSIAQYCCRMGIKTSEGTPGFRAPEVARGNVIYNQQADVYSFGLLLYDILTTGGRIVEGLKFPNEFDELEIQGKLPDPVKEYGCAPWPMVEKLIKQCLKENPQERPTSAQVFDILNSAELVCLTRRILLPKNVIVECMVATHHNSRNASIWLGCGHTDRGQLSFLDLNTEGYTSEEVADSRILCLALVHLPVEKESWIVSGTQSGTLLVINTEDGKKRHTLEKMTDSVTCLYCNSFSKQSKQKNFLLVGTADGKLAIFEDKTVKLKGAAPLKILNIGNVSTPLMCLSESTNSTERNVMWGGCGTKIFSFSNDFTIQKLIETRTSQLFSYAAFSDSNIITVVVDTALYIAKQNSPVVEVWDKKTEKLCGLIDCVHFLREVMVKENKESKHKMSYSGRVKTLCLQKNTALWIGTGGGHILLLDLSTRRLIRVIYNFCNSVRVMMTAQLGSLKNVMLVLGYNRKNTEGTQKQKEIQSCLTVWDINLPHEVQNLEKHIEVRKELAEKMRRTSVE
T1 sequence (Q5S007 whole entry): as the sequence (Q5S007 whole entry G2019S, the tested form may be a part) above, with S2019G counted along it

Compound | IC50 [1] | IC50 [2] | IC50 [3] | IC50 [4] | Activity [5] | Activity [6] | Ki [7] | Ki [8] | solubility [9]
Cc1nn(C2CCOC2)cc1Nc1nc(N)c2c(C#N)c(N3CCC[C@H]3C)n(C)c2n1 (single isomer, unassigned) | 0.044 µM | 0.26 µM | 0.18 µM | 0.028 µM | – | – | – | – | –
C[C@@H]1CCCN1c1c(C#N)c2c(N)nc(Nc3cn(C)nc3C(F)(F)F)nc2n1C | 0.508 µM | 0.91 µM | 0.46 µM | 0.358 µM | – | – | – | – | –
C[C@@H]1CCCN1c1c(C#N)c2c(N)ncnc2n1C | 0.015 µM | – | – | 0.011 µM | 93% | 64% | 0.0007 µM | 0.0004 µM | –
C[C@@H]1CCCN1c1cc2c(N)ncnc2n1C | 6.83 µM | – | – | 6.39 µM | – | – | 0.439 µM | 0.164 µM | –
Cc1nn(C2CCOC2)cc1Nc1nc(N)c2c(C#N)c(N3CCC[C@H]3C)n(C)c2n1 (mixture of isomers) | 0.019 µM | 0.14 µM | 0.065 µM | 0.012 µM | – | – | – | – | –
Cc1c(Nc2nc(N)c3c(C#N)c(N4CCC[C@H]4C)n(C)c3n2)cnn1C1COC1 | 0.047 µM | 0.3 µM | 0.19 µM | 0.037 µM | – | – | – | – | –
Cn1c(-c2ccccc2)c(C#N)c2c(N)ncnc21 | 1.26 µM | – | – | 0.483 µM | – | – | 0.033 µM | 0.03 µM | –
Cn1c(-c2cccc(F)c2F)c(C#N)c2c(N)ncnc21 | 0.572 µM | – | – | 0.159 µM | – | – | 0.011 µM | 0.014 µM | –
C[C@H]1CCCN1c1c(C#N)c2c(N)ncnc2n1C | 5.66 µM | – | – | 3.08 µM | – | – | 0.212 µM | 0.136 µM | –
Cc1nn(CC2(O)COC2)cc1Nc1nc(N)c2c(C#N)c(N3CCC[C@H]3C)n(C)c2n1 | 0.057 µM | 0.41 µM | 0.25 µM | 0.051 µM | – | – | – | – | –
Cc1c(Nc2nc(N)c3c(C#N)c(N4CCC[C@H]4C)n(C)c3n2)cnn1CC1(O)COC1 | 0.016 µM | 0.22 µM | 0.12 µM | 0.01 µM | – | – | – | – | –
C[C@@H]1CCCN1c1c(C#N)c2c(N)nccc2n1C | 0.034 µM | – | – | 0.028 µM | 65% | 37% | 0.002 µM | 0.0008 µM | –
Cc1nn(C)cc1Nc1nc(N)c2c(C#N)c(N3CCC[C@H]3C)n(C)c2n1 | 0.038 µM | 0.19 µM | 0.12 µM | 0.03 µM | – | – | 0.002 µM | 0.001 µM | –
Cc1n[nH]cc1Nc1nc(N)c2c(C#N)c(N3CCC[C@H]3C)n(C)c2n1 | 0.042 µM | – | – | 0.027 µM | -5% | 8% | 0.002 µM | 0.001 µM | –
Cn1c(-n2cccc2)c(C#N)c2c(N)ncnc21 | – | – | – | – | – | – | 1.98 µM | 0.239 µM | Insoluble
C[C@@H]1CCCN1c1c(C#N)c2c(N)nc(Nc3cnn(C)c3)cc2n1C | – | – | – | – | – | – | 0.794 µM | 0.538 µM | –
C[C@@H]1CCCN1c1c(C#N)c2c(N)nc(Nc3cn(C)nc3Cl)nc2n1C | 0.034 µM | 0.19 µM | 0.054 µM | 0.021 µM | – | – | – | – | –
C[C@@H]1CCCN1c1c(C(N)=O)c2c(N)ncnc2n1C | 3.19 µM | – | – | 2.24 µM | – | – | 0.154 µM | 0.077 µM | –

Compound | IC50 [1] | IC50 [2] | IC50 [3] | IC50 [4] | Activity [5] | Activity [6] | Ki [7] | Ki [8] | solubility [9]
CN(C)c1ncnc2nc[nH]c12 [DIMETHYLADENINE] | – | – | – | 3.35 µM | – | – | 1.42 µM | – | –
Cc1nn(CC(C)(C)O)cc1Nc1nc(N)c2c(C#N)c(N3CCC[C@H]3C)n(C)c2n1 | 0.049 µM | 0.28 µM | 0.18 µM | 0.042 µM | – | – | – | – | –
C[C@@H]1CCCN1c1[nH]c2ncnc(N)c2c1C#N | 0.166 µM | – | – | 0.201 µM | – | – | 0.014 µM | 0.004 µM | –
C[C@@H]1CCCN1c1c(C#N)c2c(N)nc(Nc3cnn(C)c3)nc2n1C | 0.006 µM | – | – | 0.005 µM | 91% | 103% | 0.0003 µM | 0.0001 µM | –
Cc1c(Nc2nc(N)c3c(C#N)c(N4CCC[C@H]4C)n(C)c3n2)cnn1CC(C)(C)O | 0.043 µM | 0.28 µM | 0.12 µM | 0.035 µM | – | – | – | – | –
Cc1c(Nc2nc(N)c3c(C#N)c(N4CCC[C@H]4C)n(C)c3n2)cnn1C | 0.075 µM | 0.31 µM | 0.26 µM | 0.043 µM | – | – | 0.003 µM | 0.002 µM | –
Cn1c(N2CCCC2)c(C#N)c2c(N)ncnc21 | 1.48 µM | – | – | 1.91 µM | – | – | 0.125 µM | 0.041 µM | –
Cc1cn(C)nc1Nc1cc2c(c(N)n1)c(C#N)c(N1CCC[C@H]1C)n2C | 2.11 µM | – | – | 1.29 µM | -7% | 8% | 0.075 µM | 0.063 µM | –
C[C@@H]1CCCN1c1c(C#N)c2c(N)nc(Nc3ccn(C)n3)cc2n1C | 0.234 µM | – | – | 0.206 µM | 3% | 27% | 0.013 µM | 0.006 µM | –
Cn1c(N)c(C#N)c2c(N)ncnc21 | 14.4 µM | – | – | 8.56 µM | – | – | 0.589 µM | 0.346 µM | –
CN(C)c1c(C#N)c2c(N)ncnc2n1C | 4.62 µM | – | – | 3.76 µM | – | – | 0.259 µM | 0.111 µM | –
C[C@@H]1CCCN1c1c(C#N)c2c(N)nc(N)nc2n1C | 0.248 µM | – | – | 0.217 µM | – | – | 0.013 µM | 0.006 µM | –
Nc1ncnc2nc[nH]c12 [ADENINE] | – | – | – | 15.8 µM | – | – | 6.72 µM | – | –
Cn1c(NCc2ccccc2)c(C#N)c2c(N)ncnc21 | – | – | – | 3.53 µM | – | – | 0.243 µM | 0.423 µM | –
Cn1c(NCc2ccccc2F)c(C#N)c2c(N)ncnc21 | 6.06 µM | – | – | 1.74 µM | – | – | 0.12 µM | 0.145 µM | –
Nc1ncnc2[nH]ncc12 | – | – | – | 26.6 µM | – | – | 11.3 µM | – | –
C[C@@H]1CCCN1c1c(C#N)c2c(N)nc(Nc3cn[nH]c3)nc2n1C | 0.006 µM | – | – | 0.006 µM | 97% | 101% | 0.0004 µM | 0.0002 µM | –
Cc1nn(C2COC2)cc1Nc1nc(N)c2c(C#N)c(N3CCC[C@H]3C)n(C)c2n1 | 0.038 µM | 0.24 µM | 0.14 µM | 0.025 µM | – | – | – | – | –
